According to patent US6974791B2, “Endothelial specific targeting” (The University of Pittsburgh, priority 2000, dated 2005):
“Also recorded” adds a separate entry of the source. Where no end group is shown, it is not given here.

Key:
[1] = tested on: vessels in human xenograft PC-3 (prostate carcinoma) tumors; assay: in vivo binding of intravenously injected peptide in PC-3 tumor-bearing mice (fluorescence microscopy of frozen sections); parameters: species or system mouse; conditions: for binding to vessels in the tumors (tumor cross-sections): five i.v. (tail vein) injections of 1 ng/mouse at one hour intervals
Procedure: (§1) Additionally, in vivo experiments with the prototype peptide, SEQ ID NO 3, which stained the brightest in the in vitro experiments described above, were conducted using several different assays as described below. In one in vivo assay, tumor-bearing mice were injected five times intravenously (tail vein) with 1 ng/mouse at one hour intervals. The mice were sacrificed 15 minutes after the final injection, the tumors and other normal tissues (lung, heart, muscle) were taken for fresh frozen sectioning (i.e., embedded in OCT medium and frozen) and for evaluation via fluorescence microscopy. […] Although these peptides were generated from TDEC originating from the murine SCC tumor, SEQ ID NO 3 also bound to the endothelium from a human xenograft model.
The specificity of SEQ ID NO 3 for endothelial vessels is illustrated in FIG. 7. In this experiment, PC-3 tumor-bearing mice were injected (as described above) with positive control poly-L-lysine, negative control SEQ ID NO 8 Pen G7 and peptide SEQ ID NO 3. FIG. 7A, 7B and 7C are micrographs illustrating cross-sections of PC-3 tumor from tumor-bearing mice that were injected with peptides. In each figure, the gray diamond indicates the location of the lumen of the blood vessel.

[2] = tested on: tumor-derived endothelial cells (TDEC); assay: in vitro binding of FITC-conjugated peptides to TDEC monolayers (fluorescent microscopy), NIH3T3 as negative control monolayer; type: cell-based, mouse; conditions: peptide 5 μg/ml overnight at 37° C. in PBS with 10% FCS; TDEC vs NIH3T3 monolayers
Procedure: Tumors were established by subcutaneous injection of 5×10^6 SCC VII cells per C3H/HeJ mouse. After a tumor had achieved a diameter of 0.5 cm to 1.0 cm and before any evidence of central necrosis, it was removed sterilely, minced, and digested with collagenases and RNAses to yield a single cell suspension. The cells were then stained using antibody for PECAM-1. The stained cells were sorted using automated flow cytometry and the positive cells were cultured as TDECs in Po Media [DMEM supplemented with 20% Sarcoma-180 conditioned media, 10% Fetal Calf Serum, 1% BME vitamin, 1% heparin, and 0.005% endothelial cell growth supplement (Collaborative Research)].
Evidence for specific binding of oligopeptides to TDEC was accomplished as follows. The most frequently repetitive sequences obtained from the 100 clones were used for synthesis of oligopeptides (Sigma Genesis). By conjugating fluorescein isothiocynate ([…]) to the carboxyl termini of peptides, these molecules were tested for in vitro binding with TDECs and NIH3T3 cells (negative control cell line). These peptides contained flanking cysteines so that a disulfide loop may be reformed, thus constraining and mimicking the binding condition of the initial selection process. […]

[3] = tested on: vessels in murine SCC (squamous cell) tumors; assay: in vivo binding of intravenously injected peptide in tumor-bearing mice, murine SCC tumor model (fluorescence microscopy of frozen sections); parameters: species or system mouse
Procedure: as §1

[4] = tested on: human soft tissue sarcoma and prostate carcinoma tumor sections (endothelium); assay: triple staining of fresh frozen human tumor sections with FITC-tagged peptide, anti-Factor VIII antibody and nuclear stain; type: binding; conditions: fresh frozen sections snap fixed in paraformaldehyde
Procedure: The ability of novel peptide motifs of the present invention to cross-react with tissues from different sources was tested using human samples from a pathologist-diagnosed soft tissue sarcoma and a prostate carcinoma. Fresh frozen tumor sections were snap fixed in paraformaldehyde, and then triple stained for fluorescence microscopic analysis, the results of which are shown in FIG. 8. The staining included: a stain for cell nuclei, and anti-Factor VIII antibody (secondary antibody labeled with Cy3 red fluorescent probe), and peptide SEQ ID NO 3 (tagged with FITC, green upon fluorescence). […] Factor VIII staining is specific for endothelial cells which produce and store the Factor VIII blood factor.

Substance	binding to vessels in the tumors (tumor cross-sections) [1]	staining / binding specificity of FITC-labeled peptide for TDEC [2]	binding to vessels of normal tissues ([3]; murine SCC tumor-bearing mice, lung, heart, muscle, five i.v. injections of 1 ng/mouse)	binding to vessels in the tumors ([3]; murine SCC tumor, five i.v. (tail vein) injections of 1 ng/mouse at one hour intervals, sacrifice 15 minutes after final injection)	distribution of staining in PC-3 tumor cross-section ([1]; after i.v. injection, FIG. 7C)	binding to vessels of normal tissues ([1]; lung, heart, muscle, five i.v. injections of 1 ng/mouse)	staining of human tumor sections relative to Factor VIII-positive (vascularized) regions [4]
CGGGGGGGC (cysteine pairing not given here) [SEQ ID NO 8 Pep G7, negative control peptide, seven glycine residues flanked by cysteines, reference compound]	no binding activity						
CGGRKLGGC (cysteine pairing not given here) [SEQ ID NO 2]		preferential staining for TDEC; also recorded: some binding specificity to TDEC					
CGGRRLGGC (cysteine pairing not given here) [SEQ ID NO 3]	preferential binding; also recorded: intense binding to the cells of the vessel	brightest staining and specificity for TDEC; also recorded: highest in vitro binding specificity to TDEC	no binding to the vessels of normal tissues	preferential binding	limited to the blood vessel wall	no binding to the vessels of normal tissues	observed primarily in the regions of the tissue that were vascularized
poly-L-lysine [reference compound]	not only bound to the cells of the blood vessel, but also diffused through the intercellular space						
